# From US9771343B2, “2-alkyl-or-aryl-substituted tanshinone derivatives, and preparation method and application thereof” (Hangzhou Bensheng Pharmaceutical Co., Ltd., priority 2011, dated 2017)
# Columns and labels:
# [1] = tested on: PANC-1 (pancreatic cancer); experiment: MTT cell growth inhibition, PANC-1 cells, 72 h; type: cell-based, human; details: Homo sapiens, PANC-1, 72 h; for IC50: read-out: IC50; for IC90: read-out: IC90
# Procedure: (§1) The standard sample of tanshinone I (TA) and the 2-alkyl- or 2-aromatic-substituted tanshinone I derivatives of the present invention are sufficiently dissolved in dimethylsulfoxide to produce a stock solution of 10 mg/mL, which is refrigerated at 4° C. and stored in dark, and is diluted with a cell culture medium to the desired concentration prior to experimentation.
# (§2) Obtaining 6000 well-growing human solid tumor cells and inoculating them into wells of a 96-well cell culture plate. The culture medium is DMEM High Glucose cell culture medium containing 10% fetal bovine serum. The plate is placed in a carbon dioxide cell incubator (5% CO2) at 37° C. and incubated for 24 hours. After adding the 2-alkyl- or 2-aromatic-substituted tanshinone I derivatives of different concentrations and mixing uniformly, the plate is placed in a carbon dioxide cell incubator (5% CO2) at 37° C. and incubated for 72 hours. Then the viable cell concentration is determined by MTT method. In this experiment, the cell viability in control group (not treated with any compound) is set as 100%, and the cell viability (%) after treatment by the compounds and the half maximum inhibitory concentration for the leukemia cell at 72 hours (IC50 value of 72 hours, μg/mL) are calculated.
# [2] = tested on: Hep G2 (human liver cancer cell); experiment: MTT cell growth inhibition, Hep G2 cells, 72 h; type: cell-based; details: for IC50 / IC90: Homo sapiens, HepG2, Hep G2, 72 h; for IC50: read-out: IC50; for IC90: read-out: IC90
# Procedure: as §1, §2
# [3] = tested on: CNE (nasopharyngeal carcinoma cell); experiment: MTT cell growth inhibition, CNE cells, 72 h; type: cell-based, human; details: for IC50 / IC90: Homo sapiens, CNE, 72 h; for IC50: read-out: IC50; for IC90: read-out: IC90
# Procedure: as §1, §2
# [4] = tested on: NB4 (acute promyelocytic leukemia, AML); experiment: MTT cell growth inhibition, NB4 leukemia cells, 72 h; type: cell-based; details: for IC50 / IC90: NB4, 72 h; for IC50: read-out: IC50; for IC90: read-out: IC90
# Procedure: (§3) The standard sample of tanshinone I (TA) and the 2-alkyl- or 2-aromatic-substituted tanshinone I derivatives of the present invention are sufficiently dissolved in dimethylsulfoxide to produce a stock solution of 10 mg/mL, which is refrigerated at 4° C. and stored in dark, and is diluted with cell culture medium to a desired concentration prior to experimentation.
# as §2, with “leukemia” for “human solid tumor”, “the RPMI-1640” for “DMEM High Glucose”, “serum.” for “serum. The plate is placed in a carbon dioxide cell incubator (5% CO2) at 37° C. and incubated for 24 hours.”, “adding on the second day” for “adding”, “uniformly, placing” for “uniformly,”, “plate” for “plate is placed”
# [5] = tested on: K562/adr (drug-resistant, chronic myeloid leukemia, CML); experiment: MTT cell growth inhibition, K562/adr leukemia cells, 72 h; type: cell-based; details: Homo sapiens, K562/Adr; for IC50: read-out: IC50; for IC90: read-out: IC90
# Procedure: as §3
# as §2, with “leukemia” for “human solid tumor”, “the RPMI-1640” for “DMEM High Glucose”, “serum.” for “serum. The plate is placed in a carbon dioxide cell incubator (5% CO2) at 37° C. and incubated for 24 hours.”, “adding on the second day” for “adding”, “uniformly, placing” for “uniformly,”, “plate” for “plate is placed”
# A549 (human lung cancer) = experiment: MTT cell growth inhibition, A549 cells, 72 h; type: cell-based; details: Homo sapiens, A549, 72 h; for IC50: read-out: IC50; for IC90: read-out: IC90
# Procedure: as §1, §2
# [6] = tested on: SK-OV-3 (ovarian cancer cell); experiment: MTT cell growth inhibition, SK-OV-3 cells, 72 h; type: cell-based, human; details: for IC50 / IC90: Homo sapiens, SK-OV-3, 72 h; for IC50: read-out: IC50; for IC90: read-out: IC90
# Procedure: as §1, §2
# [7] = tested on: RPMI8226 (multiple myeloma); experiment: MTT cell growth inhibition, RPMI8226 multiple myeloma cells, 72 h; type: cell-based, human; details: Homo sapiens, RPMI 8226, 72 h; for IC50: read-out: IC50; for IC90: read-out: IC90
# Procedure: as §3
# as §2, with “leukemia” for “human solid tumor”, “the RPMI-1640” for “DMEM High Glucose”, “serum.” for “serum. The plate is placed in a carbon dioxide cell incubator (5% CO2) at 37° C. and incubated for 24 hours.”, “adding on the second day” for “adding”, “uniformly, placing” for “uniformly,”, “plate” for “plate is placed”
# MG63 (osteosarcoma) = experiment: MTT cell growth inhibition, MG63 cells, 72 h; type: cell-based, human; details: Homo sapiens, MG-63, 72 h; for IC50: read-out: IC50; for IC90: read-out: IC90
# Procedure: as §1, §2
# [8] = tested on: Jurkat (acute lymphoblastic leukemia, ALL); experiment: MTT cell growth inhibition, Jurkat leukemia cells, 72 h; type: cell-based; details: Homo sapiens, 72 h; for IC50: read-out: IC50; for IC90: read-out: IC90
# Procedure: as §3
# as §2, with “leukemia” for “human solid tumor”, “the RPMI-1640” for “DMEM High Glucose”, “serum.” for “serum. The plate is placed in a carbon dioxide cell incubator (5% CO2) at 37° C. and incubated for 24 hours.”, “adding on the second day” for “adding”, “uniformly, placing” for “uniformly,”, “plate” for “plate is placed”
# [9] = tested on: MGC 803 (human gastric cancer cell); experiment: MTT cell growth inhibition, MGC 803 cells, 72 h; type: cell-based; details: for IC50 / IC90: Homo sapiens, MGC-803, 72 h; for IC50: read-out: IC50; for IC90: read-out: IC90
# Procedure: as §1, §2
# [10] = tested on: Kasumi-1 (acute myeloid leukemia M2 type, AML-M2); experiment: MTT cell growth inhibition, Kasumi-1 leukemia cells, 72 h; type: cell-based; details: Homo sapiens, Kasumi-1, 72 h; for IC50: read-out: IC50; for IC90: read-out: IC90
# Procedure: as §3
# as §2, with “leukemia” for “human solid tumor”, “the RPMI-1640” for “DMEM High Glucose”, “serum.” for “serum. The plate is placed in a carbon dioxide cell incubator (5% CO2) at 37° C. and incubated for 24 hours.”, “adding on the second day” for “adding”, “uniformly, placing” for “uniformly,”, “plate” for “plate is placed”
# [11] = tested on: CaES-17 (esophageal cancer cell); experiment: MTT cell growth inhibition, CaES-17 cells, 72 h; type: cell-based, human; details: Homo sapiens, CaEs17, CaEs-17, 72 h; for IC50: read-out: IC50; for IC90: read-out: IC90
# Procedure: as §1, §2
# [12] = tested on: Hep-2 (laryngeal carcinoma); experiment: MTT cell growth inhibition, Hep-2 cells, 72 h; type: cell-based, human; details: Homo sapiens, HEp-2, 72 h; for IC50: read-out: IC50; for IC90: read-out: IC90
# Procedure: as §1, §2
# [13] = tested on: U87 MG (malignant glioma cell); experiment: MTT cell growth inhibition, U87 MG cells, 72 h; type: cell-based, human; details: for IC50 / IC90: Homo sapiens, U-87 MG, U87-MG, 72 h; for IC50: read-out: IC50; for IC90: read-out: IC90
# Procedure: as §1, §2
# [14] = tested on: Hela (human cervical cancer cell); experiment: MTT cell growth inhibition, Hela cells, 72 h; type: cell-based; details: for IC50 / IC90: Homo sapiens, HeLa, 72 h; for IC50: read-out: IC50; for IC90: read-out: IC90
# Procedure: as §1, §2
# [15] = tested on: H9 (acute lymphoblastic leukemia, ALL); experiment: MTT cell growth inhibition, H9 leukemia cells, 72 h; type: cell-based; details: for IC50 / IC90: H9, 72 h; for IC50: read-out: IC50; for IC90: read-out: IC90
# Procedure: as §3
# as §2, with “leukemia” for “human solid tumor”, “the RPMI-1640” for “DMEM High Glucose”, “serum.” for “serum. The plate is placed in a carbon dioxide cell incubator (5% CO2) at 37° C. and incubated for 24 hours.”, “adding on the second day” for “adding”, “uniformly, placing” for “uniformly,”, “plate” for “plate is placed”
# PC-3 (prostate cancer) = experiment: MTT cell growth inhibition, PC-3 cells, 72 h; type: cell-based, human; details: for IC50 / IC90: Homo sapiens, PC-3, 72 h; for IC50: read-out: IC50; for IC90: read-out: IC90; for anti-PC-3 activity (in words): Table 2
# Procedure: as §1, §2
# [16] = tested on: RKO (human colon adenocarcinoma cell); experiment: MTT cell growth inhibition, RKO cells, 72 h; type: cell-based; details: for IC50 / IC90: Homo sapiens, RKO, 72 h; for IC50: read-out: IC50; for IC90: read-out: IC90; for anti-RKO activity (in words): Table 2
# Procedure: as §1, §2
# [17] = tested on: Becap37 (human breast cancer cell); experiment: MTT cell growth inhibition, Becap37 cells, 72 h; type: cell-based; details: for IC50 / IC90: Homo sapiens, Becap-37, 72 h; for IC50: read-out: IC50; for IC90: read-out: IC90
# Procedure: as §1, §2
compound,measurement,setting,value
Cc1oc2c(c1C)C(=O)C(=O)c1c-2ccc2c(C)cccc12 [BS-TA-03],IC50,[1],3.46 µg/mL
same,IC90,[1],> 16 µg/mL
same,IC50,[2],5.48 µg/mL
same,IC90,[2],> 16 µg/mL
same,IC50,[3],3.9 µg/mL
same,IC90,[3],97 µg/mL
same,anti-CNE activity (in words),[3]; Table 2,good activity
same,IC50,[4],1.13 µg/mL
same,IC90,[4],3.64 µg/mL
same,IC50,[5],8.84 µg/mL
same,IC90,[5],28.7 µg/mL
same,IC50,A549 (human lung cancer),6.45 µg/mL
same,IC90,A549 (human lung cancer),> 16 µg/mL
same,IC50,[6],> 16 µg/mL
same,IC90,[6],> 16 µg/mL
same,IC50,[7],2 µg/mL
same,IC90,[7],16.5 µg/mL
same,IC50,MG63 (osteosarcoma),3.18 µg/mL
same,IC90,MG63 (osteosarcoma),> 16 µg/mL
same,IC50,[8],1.88 µg/mL
same,IC90,[8],6.97 µg/mL
same,IC50,[9],4.65 µg/mL
same,IC90,[9],18.4 µg/mL
same,IC50,[10],9.66 µg/mL
same,IC90,[10],30.3 µg/mL
same,IC50,[11],5.19 µg/mL
same,IC90,[11],20.4 µg/mL
same,IC50,[12],9.17 µg/mL
same,IC90,[12],> 16 µg/mL
same,IC50,[13],6.63 µg/mL
same,IC90,[13],16.8 µg/mL
same,IC50,[14],4 µg/mL
same,IC90,[14],> 16 µg/mL
same,IC50,[15],6.4 µg/mL
same,IC90,[15],> 16 µg/mL
same,IC50,PC-3 (prostate cancer),4.99 µg/mL
same,IC90,PC-3 (prostate cancer),17.5 µg/mL
same,anti-PC-3 activity (in words),PC-3 (prostate cancer),good activity
same,IC50,[16],1.35 µg/mL
same,IC90,[16],> 16 µg/mL
same,anti-RKO activity (in words),[16],good activity
same,IC50,[17],3.96 µg/mL
same,IC90,[17],> 16 µg/mL
Cc1c(-c2ccc(C(=O)O)cc2)oc2c1C(=O)C(=O)c1c-2ccc2c(C)cccc12 [BS-TA-302],IC50,[1],5.48 µg/mL
same,IC90,[1],> 16 µg/mL
same,IC50,[2],1.94 µg/mL
same,IC90,[2],> 16 µg/mL
same,anti-Hep G2 activity (in words),[2]; Table 2,superior to that of tanshinone I per se
same,IC50,[3],15 µg/mL
same,IC90,[3],> 16 µg/mL
same,IC50,[4],0.2 µg/mL
same,IC90,[4],1 µg/mL
same,improvement of anti-NB4 activity as compared with tanshinone I per se,"[4]; NB4, vs tanshinone I",~5 fold
same,IC50,[5],1.08 µg/mL
same,IC90,[5],3.6 µg/mL
same,IC50,A549 (human lung cancer),16.6 µg/mL
same,IC90,A549 (human lung cancer),> 16 µg/mL
same,IC50,[6],11.1 µg/mL
same,IC90,[6],> 16 µg/mL
same,anti-SK-OV-3 activity (in words),[6]; Table 2,superior to that of tanshinone I per se
same,IC50,[7],1 µg/mL
same,IC90,[7],16.6 µg/mL
same,IC50,MG63 (osteosarcoma),1.05 µg/mL
same,IC90,MG63 (osteosarcoma),> 16 µg/mL
same,IC50,[8],0.84 µg/mL
same,IC90,[8],> 16 µg/mL
same,IC50,[9],0.38 µg/mL
same,IC90,[9],3.3 µg/mL
same,anti-MGC 803 activity (in words),[9]; Table 2,significantly improves
same,IC50,[10],3.85 µg/mL
same,IC90,[10],17.5 µg/mL
same,IC50,[11],6.83 µg/mL
same,IC90,[11],> 16 µg/mL
same,IC50,[12],8 µg/mL
same,IC90,[12],> 16 µg/mL
same,IC50,[13],0.5 µg/mL
same,IC90,[13],> 16 µg/mL
same,anti-U87 MG activity (in words),[13]; Table 2,superior to that of tanshinone I per se
same,IC50,[14],0.5 µg/mL
same,IC90,[14],16 µg/mL
same,anti-Hela activity (in words),[14]; Table 2,superior to that of tanshinone I per se
same,IC50,[15],0.7 µg/mL
same,IC90,[15],1.98 µg/mL
same,improvement of anti-H9 activity as compared with tanshinone I per se,"[15]; H9, vs tanshinone I",~5 fold
same,IC50,PC-3 (prostate cancer),6.49 µg/mL
same,IC90,PC-3 (prostate cancer),> 16 µg/mL
same,anti-PC-3 activity (in words),PC-3 (prostate cancer),significantly improves
same,IC50,[16],1.53 µg/mL
same,IC90,[16],> 16 µg/mL
same,anti-RKO activity (in words),[16],superior to that of tanshinone I per se
same,IC50,[17],1.28 µg/mL
same,IC90,[17],> 16 µg/mL
same,anti-Becap37 activity (in words),[17]; Table 2,superior to that of tanshinone I per se
